Laboratory results from patent US20240316187A1, “PROTEINS IDENTIFIED FROM BARN DUST EXTRACT FOR THE PREVENTION AND TREATMENT OF DISEASES” (Helmholtz Zentrum München - Deutsches Forschungszentrum für …, priority 2021, published 2024).
Entries after “also recorded” stand apart in the source; their conditions may differ.

T1: 15N-bOBP (Bos taurus, UniProt P07435)
T1 construct: 6xHis (N, cleaved yes); Thioredoxin (Trx) (N, cleaved yes); TEV cleavage site (N, cleaved yes); made in house; host or cells: E. coli BL21 (M9 minimal medium for 15N labelling)
T1 sequence (P07435 with tags, fused parts or gaps): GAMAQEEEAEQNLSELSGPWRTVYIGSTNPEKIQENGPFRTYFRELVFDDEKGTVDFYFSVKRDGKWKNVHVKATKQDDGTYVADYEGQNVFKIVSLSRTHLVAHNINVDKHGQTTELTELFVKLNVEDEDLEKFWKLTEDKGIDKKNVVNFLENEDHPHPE

B1: OBP: Recombinant bovine odorant-binding protein, lipocalin family, without ligand (protein, listed as Bos taurus)
chain: AQEEEAEQNLSELSGPWRTVYIGSTNPEKIQENGPFRTYFRELVFDDEKGTVDFYFSVKRDGKWKNVHVKATKQDDGTYVADYEGQNVFKIVSLSRTHLVAHNINVDKHGQTTELTELFVKLNVEDEDLEKFWKLTEDKGIDKKNVVNFLENEDHPHPE

Key:
[1] = system: Balb/c mice sensitized with OVA; test: OVA allergic asthma model, intranasal application of test substance; format: in vivo, mouse; settings: for Bronchoalveolar lavage (BAL) eosinophil numbers / AHR to increasing doses of methacholine: 12 intranasal applications d0-d26, analysis day 28; for Bronchoalveolar lavage (BAL) eosinophil numbers: FIG. 10; for AHR to increasing doses of methacholine: FlexiVent, FIG. 11
Procedure: Control mice were sham sensitized to PBS. Error bars reflect SEM. P values reflect one-way ANOVA, *: p value<0.05, **: p value<0.01; (FA: (E)-12-oxoheptadec-10-enaic acid).
Control mice were sham sensitized to PBS. Error bars reflect SEM. (FA: (E)-12-oxoheptadec-10-enaic acid).
Balb/c mice were first be sensitized with 10 μg OVA in Alum i.p. on day 0, 7 and 14. Three consecutive intranasal challenges with 100 μg OVA on day 25, 26 and 27, with analysis being undertaken on day 28, follows. From d0-d26 there were 12 consecutive intranasal applications of test substance. Asthma pathogenesis was assessed using methacholine lung function challenge to examine AHR as undertaken in allergic asthma patients. Furthermore, pathological manifestations such as eosinophilia was assessed. • Sensitzation: 10 μg valbumin (OVA Grade VI, Sigma, Stainheim, D) dissolved in 100 μl PBS on days 0, 7 and 14 of the assay protocol together with 100 μl (1 mg) of the adjuvant aluminium hydroxyde (Al(OH)3) (Inject Alum, Pierce, USA). • Challenge: OVA Grade V in 100 μg/mouse in 25 μl (concentration: 4 mg/ml)
Eosiniphilnumbers in the Bronchoalveolar lavage (BAL) are shown in FIG. 10. • Airway Hyperresponsivenes (AHR): Dynamic resistance and compliance (in response to increasing doses of MCh) FlexiVent results are shown in FIG. 11.

[2] = system: 16HBE cells; test: TEER assay, epithelial barrier function; format: cell-based; settings: 20 μg/ml, 24 hours after treatment; compared with cow SDE at 200 μg/ml; FIG. 6
Procedure: TEER Assay: 16HBE: untreated cells; Farm dust (Hec 20)=Cow shed dust extract>10 kDa autoclaved, 200 μg/ml; Bosd2+FA=His-Trx-Bos d2+(E)-12-oxoheptadec-10-enaic acid, 20 μg/ml; OBP+FA=bOBP+(E)-12-oxoheptadec-10-enaic acid, 20 μg/ml.
To examine the effect of the Lipoproteins Bos d2+FA and OBP+FA on the epithelial barrier function as measured by transepithelial electrical resistance (TEER). 16HBE (100.000 (1×10*5)) cells were seeded on transwell inserts in […] medium (MEM with Earle's salt, 10% FBS (during cultivation only, during assay no FBS), 1% L-Glutamine, 1% Penicillin/Streptomycin). After 24 hours of culture, cells were treated with the indicated compounds, and 24 hours after treatment, TEER values were determined using an EVOM2 epithelial voltohmmeter (World Precision Instruments). Cow SDE was used at 200 μg/ml, all other compounds were used at 20 μg/ml.

[3] = target: T2, human TLR2 (Homo sapiens, UniProt O60603); test: Activation of TLR-2, NFkB induction in HEK-Blue-hTLR2 cells (SEAP reporter); format: cell-based; settings: human TLR2 transfected HEK cells; positive control Pam3CSK4; FIG. 5
T2 construct: host or cells: HEK293 (HEK-Blue-hTLR2)
T2 sequence (O60603 21-784): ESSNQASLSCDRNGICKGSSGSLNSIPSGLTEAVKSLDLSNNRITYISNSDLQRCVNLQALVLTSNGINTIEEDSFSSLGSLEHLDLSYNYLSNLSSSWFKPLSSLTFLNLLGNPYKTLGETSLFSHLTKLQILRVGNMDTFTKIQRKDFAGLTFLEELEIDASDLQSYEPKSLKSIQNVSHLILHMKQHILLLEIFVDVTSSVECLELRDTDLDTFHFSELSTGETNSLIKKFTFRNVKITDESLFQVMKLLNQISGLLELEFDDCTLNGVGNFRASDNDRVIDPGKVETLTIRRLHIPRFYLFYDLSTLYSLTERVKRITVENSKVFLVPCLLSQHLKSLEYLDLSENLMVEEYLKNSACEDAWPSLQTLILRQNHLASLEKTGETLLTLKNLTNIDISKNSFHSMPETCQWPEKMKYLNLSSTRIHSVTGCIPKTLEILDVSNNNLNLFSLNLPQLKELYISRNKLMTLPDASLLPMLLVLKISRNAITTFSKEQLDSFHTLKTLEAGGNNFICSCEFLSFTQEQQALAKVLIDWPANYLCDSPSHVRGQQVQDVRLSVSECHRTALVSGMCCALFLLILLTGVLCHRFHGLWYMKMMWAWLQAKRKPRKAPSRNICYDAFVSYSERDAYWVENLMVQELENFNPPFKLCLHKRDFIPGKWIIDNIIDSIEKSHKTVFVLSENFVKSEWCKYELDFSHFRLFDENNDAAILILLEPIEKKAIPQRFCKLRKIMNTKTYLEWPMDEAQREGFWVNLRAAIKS
Source text: NKfB induction in HEK-hTLR2. Dotted line: PBS/DMSO (negative control); Pam3CSK4=positive control; Farm dust (Hec 20)=Cow shed dust extract>10 kDa autoclaved; Bosd2+FA=His-Trx-Bos d2+€-12-oxoheptadec-10-enaic acid; OBP+FA=bOBP+€-12-oxoheptadec-10-enaic acid; OBP=bOBP; FA=€-12-oxoheptadec-10-enaic acid.
HEK-Blue™-hTLR2 cells (InvivoGen) are obtained by co-transfection of the human TLR2 and SEAP (secreted embryonic alkaline phosphatase) genes into HEK293 cells. The SEAP reporter gene is placed under the control of the IFN-β minimal promoter fused to five NF-κB and AP-1-binding sites. Additionally, the CD14 co-receptor gene was transfected into these cells to enhance the TLR2 response. Stimulation with a TLR2 ligand activates NF-κB and AP-1, which in turn induce the production of SEAP. Levels of SEAP are determined with HEK-Blue™ Detection, a cell culture medium that allows for real-time detection of SEAP.

[4] = system: OVA pulsed BMDCs cocultured with OT-II CD4 T cells; test: DC/T-cell interaction assay; format: cell-based, mouse; settings: pre-treatment of BMDCs (two treatments), LPS stimulation, FIG. 8
Procedure: Effect of lipoprotein candidates on DC T-cell interaction: OVA pulsed BMDCs enhanced OT-II CD4 T cell number (Medium), which was prevented by pre-treatment of BMDCs with, Bos d2+FA and OPB+FA. CD4+ count: For each sample 10400 counting beads were added to tube and 5000 beads were counted for recording. CD4+ count indicates the amount of CD4+ cells contained in the volume needed to count 5000 beads. (FA: (E)-12-oxoheptadec-10-enaic acid).
DCs are professional antigen presenting cells crucial for the priming of CD4 T cells in asthma and allergy. The mouse primary bone marrow derived DCs (BMDCs) were utilized to evaluate the ability of the test substances to modulate their activation. DC activation is monitored their ability to regulate the differentiation and proliferation of OVA-specific CD4 T cells (OT-II) following DC pulsing with the OVA peptide.
For this assay, bone marrow derived DCs are isolated from C57B16 mice and put into culture. […]
Isolate bone marrow from wild-type C57BL/6 mouse and seed cells in 10 ml Petri dishes in 10 ml volume (2 million cells/dish) containing 20 ng/ml rmGM-CSF. […] Cells were then collected and counted with the help of counting beads and seeded in V bottom 96 well plates (10000 cells/well) and pulsed with OVA peptide (323-339) for 3 hours. […] 20000 stained T Cells were cocultured with DCs for […], and T Cells were then analyzed with flow cytometry.

[5] = target: T1, 15N-bOBP; test: NMR binding studies (1H,15N-HSQC titration); settings: 200 μM 15N-bOBP alone or in presence of 1 mM and 2 mM fatty acid, pH 6.5, 25° C.
Procedure: NMR binding studies. Overlay of ^1H, […] spectra of ^15N-bOBP alone and in presence of 5- and 10-fold excess of (E)-12-oxoheptadec-10-enoic acid. Arrow and inlet show CSP of exemplary peak. Arrows and inlets show CSP of exemplary peaks.
NMR measurements were performed in 3 mm tubes at 25° C. on a Bruker Avance III spectrometer operating at 600 MHz ^1H frequencies using H/N/C triple-resonance cryogenic probes. To confirm fatty acid binding, two-dimensional ^1H, ^15N heteronuclear single quantum correlation (HSQC) spectra were recorded of 200 μM ^15N-bOBP in 20 mM phosphate buffer pH 6.5, 50 mM NaCl, 1 mM β-mercaptoethanol and 10% (v/v) D20 alone or in presence of 1 mM and 2 mM fatty acid.

Row | Molecule | Bronchoalveolar lavage (BAL) eosinophil numbers [1] | AHR to increasing doses of methacholine [1] | AHR effect compared with OBP alone ([1]; same model as E7) | transepithelial electrical resistance (TEER) [2] | NFkB induction in HEK-hTLR2 (TLR2 activation) [3] | OT-II CD4 T cell number (CD4+ count) [4] | chemical shift perturbations (CSP) in 1H,15N-HSQC spectra [5]
1 | OBP+FA: Lipoprotein complex of bOBP incubated with 5 fold molar excess of (E)-12-oxoheptadec-10-enoic acid, dialysed | prevented allergic asthma | significant effect; also recorded: prevented allergic asthma | slightly better than for OBP alone | stronger effect, at much lower concentration | even stronger effect than the cow SDE | prevented | 
2 | Bos d2+FA: Lipoprotein complex of His-Trx-Bos d2 with (E)-12-oxoheptadec-10-enoic acid |  |  |  | stronger effect, at much lower concentration | even stronger effect than the cow SDE | prevented | 
3 | CCCCCC(=O)/C=C/CCCCCCCCC(=O)O [FA, (E)-12-oxoheptadec-10-enoic acid] | does not have an effect | an effect on AHR |  |  |  |  | chemical shift perturbations (CSP) which is indicative for ligand binding
4 | B1 | prevented allergic asthma | significant effect; also recorded: prevented allergic asthma |  |  | had an effect as well, but higher concentrations are needed |  | 
